Laboratory results published in US20260242350A1, “POLYCYCLIC THYROID HORMONE BETA RECEPTOR AGONIST AND USE THEREOF” (CASCADE PHARMACEUTICALS, INC., priority 2023, published 2026).

Experiments:
[1] = molecular target: T1, THRα LBD (His-GST-dLBT-THRα LBD) (Homo sapiens, UniProt P10827); test: THR-FRET (time-resolved fluorescence resonance energy transfer) agonist activity assay, THRα; format: biochemical; conditions: 24 h at room temperature
T1 construct: made in house; host or cells: E. coli BL21 (DE3)
T1 sequence (P10827 163-407 isoform P10827-2): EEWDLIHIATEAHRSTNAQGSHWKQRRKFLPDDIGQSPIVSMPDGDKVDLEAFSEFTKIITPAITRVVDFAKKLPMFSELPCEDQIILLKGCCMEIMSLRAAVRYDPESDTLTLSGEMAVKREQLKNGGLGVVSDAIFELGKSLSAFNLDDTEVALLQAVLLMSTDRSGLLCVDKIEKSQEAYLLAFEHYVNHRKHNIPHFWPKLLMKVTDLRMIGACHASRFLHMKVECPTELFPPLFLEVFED
Description: (§1) Experimental Example 1: Detection of Agonist Activities of Compounds Against THRα/β Based on Time-Resolved Fluorescence Resonance Energy Transfer (THR-FRET)
(§2) 1. Construction of THRα/β Overexpression Vectors
(§3) By visiting NCBI, the THRα/β LBD domain sequences were found. The pET21-His-GST-dLBT-THRα LBD and pET21-His-GST-dLBT-THRβLBD overexpression vectors were constructed by the fusion method, and sequenced to confirm the accuracy of the sequences.
(§4) 2. Prokaryotic Expression of Recombinant Proteins in E. coli
(§5) The THRα LBD and THRβLBD overexpression vectors confirmed by sequencing were transfected into E. coli cells BL21 (DE3), and spread on an ampicillin-resistant agar plate. Monoclones were picked out and amplified in an LB medium, and transferred into 1 L LB at a ratio of 1:100 for large-scale culture. When the OD value was at 0.8 to 1.2, 0.5 mM isopropyl-beta-D-thiogalactopyranoside (IPTG) was added, and induced overnight at 18° C. The bacteria were harvested, disrupted, and purified via the GST column and the molecular sieve to obtain two proteins His-GST-dLBT-THRα LBD and His-GST-dLBT-THRβLBD.
(§6) 3. Preparation of Compounds and Formulation of Reaction System
(§7) The proteins were taken out from a refrigerator at −80° C. The protein s with the GST-tagged THRα/p LBD domain and the Eu-labelled GST antibodies were thawed slowly on ice, and an assay buffer containing a final concentration of 5 mM dithiothreitol (DTT) was formulated.
(§8) 3.1 Preparation of Compounds
(§9) The starting concentration of the compound was 10 μM (in DMSO). The compound (100 μM in DMSO) was subjected to 3-fold isogradient dilution with DMSO to obtain a total of 11 isogradient concentrations. Subsequently, the above compounds at the isogradient concentration were further subjected to 50-fold dilution with an assay buffer containing 5 mM DTT.
(§10) 3.2 Formulation of THR-FRET Reaction System
(§11) The final concentrations of all components were calculated based on a system with a final volume of 20 µL per well. To […] of assay buffer containing 5 mM DTT, the GST-tagged THRα/β proteins, the SRC2 ([…]) polypeptide, XL665 (Cisobio, #610SAXLB), and the Eu-labeled GST antibody were added, and the final concentrations were 2 nM, 200 nM, 0.05 nM, and 7.6 nM respectively to formulate 18 μL of reaction mixture of the proteins, polypeptide, and antibody per well.
(§12) 18 μL of reaction mixture and 2 μL of diluted compound were added into an optiplate-384-well plate, and reacted at room temperature for 24 h.
(§13) The plate was read using an MD i3x multi-mode microplate reader with the excitation and emission wavelengths of 340 nm and 665 nm, respectively. The intensity of light at a wavelength of 616 nm generated by europium excited by 340 nm wavelength light from the MD i3x multi-mode microplate reader was used as the background. According to the different activation degrees of different compounds against THRα and THRβ, the intensity of the emission light at a wavelength of 665 nm generated by exciting XL665 with the exciting light at a wavelength of 616 nm was varied. The intensity ratio between these two light wavelengths (665 nm, 616 nm) was used as the activation activity of the compound against THRα or THRβ, and was normalized against the ratio in the vehicle DMSO group. The dose-response curve was fitted with four parameters using the GraphPad Prism 6.0 software, and the EC50 value was calculated.

[2] = molecular target: T2, THRβ LBD (His-GST-dLBT-THRβLBD) (Homo sapiens, UniProt P10828); test: THR-FRET (time-resolved fluorescence resonance energy transfer) agonist activity assay, THRβ; format: biochemical; conditions: for EC50: 24 h at room temperature; for Selectivity (THRα/THRβ): ratio of EC50 THRα/THRβ
T2 construct: made in house; host or cells: E. coli BL21 (DE3)
T2 sequence (P10828 217-461 limits assumed): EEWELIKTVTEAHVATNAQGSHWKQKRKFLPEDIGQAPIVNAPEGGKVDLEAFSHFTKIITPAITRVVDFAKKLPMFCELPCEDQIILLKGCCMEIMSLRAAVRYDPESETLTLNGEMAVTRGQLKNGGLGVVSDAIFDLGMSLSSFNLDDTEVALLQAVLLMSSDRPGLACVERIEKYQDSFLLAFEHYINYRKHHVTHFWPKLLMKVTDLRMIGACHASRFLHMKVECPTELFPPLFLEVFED
Description: as §1, §2, §3, §4, §5, §6, §7, §8, §9, §10, §11, §12, §13

THRβ (pGAL4-THRβ-LBD) = molecular target: T3, THRβ (pGAL4-THRβ-LBD) (Homo sapiens, UniProt P10828); test: Reporter gene (Dual-Glo luciferase) agonist activity assay in HEK293T cells, THRβ; format: cell-based; conditions: ratio of EC50 THRα/THRβ
T3 construct: expressed in transfected cells; host or cells: HEK293T
T3 sequence (P10828 217-461): T2 sequence (P10828 217-461 limits assumed)
Description: Experimental Example 2: Detection of Agonist Activities of Compounds Against THRα and THRβ Based on Reporter Gene Activity Assay Method
1.1 Construction and Preparation of Plasmids pGAL4-THR-LBD and pG5-Luc
The pGAL4-THRα-LBD and pGAL4-THRβ-LBD plasmids used in the reporter gene assay system were constructed by a conventional molecular cloning method comprising the following main steps: the cDNA sequences of THRα (NM_003250) and THRβ(NM_000461) corresponding to the amino acid sequences of THRα (163-407AA) and THRβ(217-461AA) were inserted into the BamHI and NotI enzyme digestion sites of the pGAL4 vector by the PCR technique respectively to obtain the pGAL4-THRα-LBD and pGAL4-THRβ-LBD plasmids; the pG5-Luc (#E249A) and pRL-TK (#E2241) plasmids were purchased from Promega; the plasmids were transfected into the E. coli DH5a by the CaCl2 method, and after further culture and amplification, the plasmids were purified by Plasmid Extraction Kits (TIANGEN, #D107) to obtain the corresponding plasmid DNAs.
1.2 Co-Transfection of Plasmids into HEK293T Cells and Treatment with Compounds
The HEK293T cells were inoculated into a 96-well plate at a density of 1×10^4/well the day before plasmid transfection. Cell transfection was conducted according to the instructions of the transfection reagent FuGENE® HD (Promega, #E2311). The main steps were as follows: taking one well as an example here, the plasmids pGAL4-THRα-LBD or pGAL4-THRβ-LBD, pG5-Luc, and pRL-TK were added in the proportions of 20 ng, 50 ng, and 5 ng to 10 μL of Opti-MEM™ I medium (Gibco, #11058021) and mixed well; subsequently, 0.25 μL of FuGENE® HD was added, mixed well, and then left at room temperature for 5 min; afterwards, […] was added to the cell wells containing 100 μL of culture medium. After cell co-transfection for 6 h, the compound was diluted in a 3-fold gradient with dimethyl sulfoxide at the highest concentration of 1 μM. The compound was added to the cell culture medium at a total of 10 concentrations for treatment for 24 h. There were a total of two duplicate wells for each concentration. Triiodothyronine (T3) was used as the positive control.
1.3 Dual-Glo Luciferase Assay
After the cells were treated with the compound for 24 h, the cells were assayed according to the instructions of Dual-Glo® Luciferase Assay System (Promega, #E2940). The main steps were as follows: 50 μL of culture medium was aspirated from each well and discarded, and then 50 μL of Dual-Glo® Luciferase reagent was added and oscillated at room temperature for 10 min; 80 μL of lysis reaction solution was measured into a white opaque optiPlate-96-well plate, and the luminescence signal value (Firefly-Luc) of the Firefly luciferase was detected using an MD i3x multi-mode microplate reader; 40 μL of Dual-Glo® Stop & Glo® reagent was then added, and oscillated at room temperature for 10 min; the luminescence signal value (Renilla-Luc) of the Renilla luciferase was then detected using an MD i3x multi-mode microplate reader. The Firefly-Luc/Renilla-Luc ratio was used as the activation activity of the compound against THR, and was normalized against the ratio in the vehicle DMSO group; the dose-response curve was fitted with four parameters using the GraphPad Prism6.0 software, and the EC50 value was calculated.

SMILES | EC50 [1] | EC50 [2] | Selectivity (THRα/THRβ) [2] | Selectivity (THRα/THRβ) (THRβ (pGAL4-THRβ-LBD))
O=c1cnn(-c2cc(Cl)c(Cn3ccc(=O)c4ccccc43)c(Cl)c2)c(=O)[nH]1 [Compound 1] | 1 to 10 µM | 0.1 to 1 µM | †† (10 > THRα/β > 1) | † (5 ≥ THRα/β)
O=c1cnn(-c2cc(Br)c(Cn3ccc(=O)c4ccccc43)c(Br)c2)c(=O)[nH]1 [Compound 2] | 0.1 to 1 µM | < 0.05 µM | †† (10 > THRα/β > 1) | † (5 ≥ THRα/β)
O=c1cnn(-c2cc(Cl)c(Cn3ccc(=O)c4cc(F)ccc43)c(Cl)c2)c(=O)[nH]1 [Compound 5] |  |  |  | † (5 ≥ THRα/β)
O=c1cnn(-c2cc(Cl)c(Cn3ccc(=O)c4cc(Cl)ccc43)c(Cl)c2)c(=O)[nH]1 [Compound 6] |  |  |  | † (5 ≥ THRα/β)
O=c1cnn(-c2cc(Cl)c(Cn3ccc(=O)c4cc(Br)ccc43)c(Cl)c2)c(=O)[nH]1 [Compound 7] |  |  |  | † (5 ≥ THRα/β)
O=c1cnn(-c2cc(Cl)c(Cn3ccc(=O)c4cc(OC(F)(F)F)ccc43)c(Cl)c2)c(=O)[nH]1 [Compound 8] |  |  |  | † (5 ≥ THRα/β)
O=c1cnn(-c2cc(Cl)c(Cn3ccc(=O)c4ccc(Cl)cc43)c(Cl)c2)c(=O)[nH]1 [Compound 12] |  |  |  | † (5 ≥ THRα/β)
CCOC(=O)c1cn(Cc2c(Cl)cc(-n3ncc(=O)[nH]c3=O)cc2Cl)c2ccccc2c1=O [Compound 21] |  |  |  | † (5 ≥ THRα/β)
COC(=O)c1cc2c(=O)ccn(Cc3c(Cl)cc(-n4ncc(=O)[nH]c4=O)cc3Cl)c2cc1OC [Compound 27] |  |  |  | † (5 ≥ THRα/β)
N#Cc1nn(-c2cc(Cl)c(Cn3ccc(=O)c4ccccc43)c(Cl)c2)c(=O)[nH]c1=O [Compound 31] | 1 to 10 µM | 0.1 to 1 µM | †† (10 > THRα/β > 1) | 
C#Cc1nn(-c2cc(Cl)c(Cn3ccc(=O)c4ccccc43)c(Cl)c2)c(=O)[nH]c1=O [Compound 40] | 0.1 to 1 µM | 0.05 to 0.1 µM | †† (10 > THRα/β > 1) | 
Cn1nc(-c2cc(Cl)c(Cn3ccc(=O)c4ccccc43)c(Cl)c2)c(=O)[nH]c1=O [Compound 51] |  |  |  | † (5 ≥ THRα/β)
O=c1[nH]c(COc2cc(Cl)c(Cn3ccc(=O)c4ccccc43)c(Cl)c2)no1 [Compound 58] | 0.1 to 1 µM | 0.1 to 1 µM | †† (10 > THRα/β > 1) | 
O=c1ccn(Cc2c(Cl)cc(OCc3nnn[nH]3)cc2Cl)c2ccccc12 [Compound 59] | 0.1 to 1 µM | 0.1 to 1 µM | †† (10 > THRα/β > 1) | 
O=C(O)CNc1cc(Cl)c(Cn2ccc(=O)c3ccccc32)c(Cl)c1 [Compound 60] | 0.1 to 1 µM | 0.1 to 1 µM | †† (10 > THRα/β > 1) | 
O=C(O)CC(=O)Nc1cc(Cl)c(Cn2ccc(=O)c3ccccc32)c(Cl)c1 [Compound 61] | 1 to 10 µM | 0.1 to 1 µM | †† (10 > THRα/β > 1) | 
O=C(O)C(=O)Nc1cc(Cl)c(Cn2ccc(=O)c3ccccc32)c(Cl)c1 [Compound 62] | 0.1 to 1 µM | 0.05 to 0.1 µM | †† (10 > THRα/β > 1) | 
O=c1[nH]nc(CNc2cc(Cl)c(Cn3ccc(=O)c4ccccc43)c(Cl)c2)o1 [Compound 63] | 1 to 10 µM | 0.1 to 1 µM | †† (10 > THRα/β > 1) | 
O=c1[nH]c(CNc2cc(Cl)c(Cn3ccc(=O)c4ccccc43)c(Cl)c2)no1 [Compound 64] | 0.1 to 1 µM | 0.05 to 0.1 µM | †† (10 > THRα/β > 1) | 
O=c1ccn(Cc2c(Cl)cc(NCc3nnn[nH]3)cc2Cl)c2ccccc12 [Compound 65] | 0.1 to 1 µM | < 0.05 µM | ††† (THRα/β ≥ 10) | 
O=C(Nc1cc(Cl)c(Cn2ccc(=O)c3ccccc32)c(Cl)c1)c1noc(=O)[nH]1 [Compound 66] | 1 to 10 µM | 0.1 to 1 µM | ††† (THRα/β ≥ 10) | 
